Measurements taken from US20260297042A1, “BIARYLAMIDE DERIVATIVES AND THEIR USE AS PKMYT1 INHIBITORS” (CANCER RESEARCH TECHNOLOGY LIMITED, priority 2023, published 2026).

Experiments:
Human PKMYT1 = target: T1, Human PKMYT1 (Homo sapiens, UniProt Q99640); experiment: PKMYT1 biochemical ADP-Glo enzymatic assay; details: PKMYT1 kinase domain 15 nM; ADP-Glo; banded values
T1 construct: Human PKMYT1 75-362 was cloned as a TEV cleavable 6xHis fusion; 6xHis (TEV cleavable) (cleaved yes); made in house; host or cells: bacterial cells
T1 sequence (Q99640 75-362): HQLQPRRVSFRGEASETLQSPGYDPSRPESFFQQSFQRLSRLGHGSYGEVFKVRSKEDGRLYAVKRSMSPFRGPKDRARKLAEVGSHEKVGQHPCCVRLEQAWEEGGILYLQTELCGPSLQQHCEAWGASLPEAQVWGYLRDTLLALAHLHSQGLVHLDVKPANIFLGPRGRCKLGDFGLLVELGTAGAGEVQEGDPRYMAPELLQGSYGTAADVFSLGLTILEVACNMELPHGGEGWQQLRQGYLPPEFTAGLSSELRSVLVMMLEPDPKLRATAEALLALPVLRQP
Outline: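 Intrinsic ATPase activity of E. coli-expressed, tag-cleaved human PKMYT1 kinase domain (75-362), 15 nM, with 500 µM ATP in HEPES pH 7.5/MgCl2/EGTA/Brij-35, 1% DMSO, 60 min at 26 °C. ADP formed was read by ADP-Glo Max luminescence; IC50 from 10-point, 3-fold dilution curves.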

WEE1 = target: T2, WEE1 (Homo sapiens, UniProt P30291); experiment: Selectivity versus WEE1 assay (ADP-Glo enzymatic assay); assay type: biochemical; details: for IC50: WEE1 15 nM, ADP-Glo, banded values; for PKMYT1 vs. WEE1 selectivity: fold difference in selectivity for PKMYT1 over WEE1, banded
T2 construct: purchased Thermo Fisher PR7373A
Outline: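 Kinase at 15 nM final in 50 mM HEPES pH 7.5, 10 mM MgCl2, 1 mM EGTA, 0.01% Brij-35, 1% DMSO was started with 30 µM ATP and run 60 min at 26° C. ADP formed was read by ADP-Glo luminescence; IC50 came from dose-response curves.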

T2 sequence (P30291 whole entry): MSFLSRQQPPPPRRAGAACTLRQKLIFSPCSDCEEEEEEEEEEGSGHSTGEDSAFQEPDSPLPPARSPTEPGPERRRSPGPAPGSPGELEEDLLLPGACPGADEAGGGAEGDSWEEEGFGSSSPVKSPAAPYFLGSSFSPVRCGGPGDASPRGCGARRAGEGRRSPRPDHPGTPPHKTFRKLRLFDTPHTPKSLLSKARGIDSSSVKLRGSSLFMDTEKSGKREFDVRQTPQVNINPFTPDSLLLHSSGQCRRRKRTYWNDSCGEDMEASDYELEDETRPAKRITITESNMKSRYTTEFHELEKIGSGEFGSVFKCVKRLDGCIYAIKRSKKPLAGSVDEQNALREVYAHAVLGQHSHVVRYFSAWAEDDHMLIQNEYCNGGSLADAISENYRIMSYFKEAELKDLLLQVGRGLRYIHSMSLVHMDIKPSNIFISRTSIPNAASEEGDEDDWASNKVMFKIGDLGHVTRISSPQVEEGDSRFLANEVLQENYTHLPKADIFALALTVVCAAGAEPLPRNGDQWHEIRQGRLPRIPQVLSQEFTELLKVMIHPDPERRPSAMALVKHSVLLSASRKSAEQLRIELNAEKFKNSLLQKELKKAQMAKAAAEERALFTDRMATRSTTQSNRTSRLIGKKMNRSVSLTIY

| Structure (SMILES) | IC50 (Human PKMYT1) | IC50 (WEE1) | PKMYT1 vs. WEE1 selectivity (WEE1) |
| --- | --- | --- | --- |
| Cc1ccc(O)c(C)c1NC(=O)c1cnc(Nc2ncc(C(F)(F)F)o2)s1 [BAA-437, N-(3-hydroxy-2,6-dimethylphenyl)-2-((5-(trifluoromethyl)oxazol-2-yl)amino)thiazole-5-carboxamide] | 1000 to 11000 nM | > 11 µM | W (10-<100 fold) |
| Cc1ccc(O)c(C)c1NC(=O)c1cnc(Nc2nc(C(F)(F)F)co2)s1 [BAA-438, N-(3-hydroxy-2,6-dimethylphenyl)-2-((4-(trifluoromethyl)oxazol-2-yl)amino) thiazole-5-carboxamide] | 1000 to 11000 nM | > 11 µM | W (10-<100 fold) |
| Cc1ccc(O)c(C)c1NC(=O)c1cnc(Nc2noc(C)c2C)s1 [BAA-439, 2-((4,5-dimethylisoxazol-3-yl)amino)-N-(3-hydroxy-2,6-dimethylphenyl)thiazole-5-carboxamide] | < 50 nM | 1 to 11 µM | X (100-<1000 fold) |
| Cc1conc1Nc1ncc(C(=O)Nc2c(C)ccc(O)c2C)s1 [BAA-440, N-(3-hydroxy-2,6-dimethylphenyl)-2-((4-methylisoxazol-3-yl)amino)thiazole-5-carboxamide] | < 50 nM | 1 to 11 µM | X (100-<1000 fold) |
| Cc1ccc(O)c(C)c1NC(=O)c1cnc(Nc2nc3ccccc3s2)s1 [BAA-442, 2-(benzo[d]thiazol-2-ylamino)-N-(3-hydroxy-2,6-dimethylphenyl)thiazole-5-carboxamide] | 50 to 1000 nM | > 11 µM | X (100-<1000 fold) |
| Cc1ccc(O)c(C)c1NC(=O)c1cnc(Nc2cccc3c2CCC3)s1 [BAA-443, 2-((2,3-dihydro-1H-inden-4-yl)amino)-N-(3-hydroxy-2,6-dimethylphenyl)thiazole-5-carboxamide] | 50 to 1000 nM | > 11 µM | X (100-<1000 fold) |
| Cc1ccc(O)c(C)c1NC(=O)c1cnc(Nc2nn(C)c3cccc(F)c23)s1 [BAA-444, 2-((4-fluoro-1-methyl-1H-indazol-3-yl)amino)-N-(3-hydroxy-2,6-dimethylphenyl)thiazole-5-carboxamide] | < 50 nM | > 11 µM | X (100-<1000 fold) |
| Cc1nc2cc(Nc3ncc(C(=O)Nc4c(C)ccc(O)c4C)s3)ccc2o1 [BAA-445, N-(3-hydroxy-2,6-dimethylphenyl)-2-((2-methylbenzo[d]oxazol-5-yl)amino)thiazole-5-carboxamide] | 50 to 1000 nM | 1 to 11 µM | X (100-<1000 fold) |
| CCOC(=O)c1oc(Nc2ncc(C(=O)Nc3c(C)ccc(O)c3C)s2)nc1C [BAA-446, ethyl 2-((5-((3-hydroxy-2,6-dimethylphenyl)carbamoyl)thiazol-2-yl)amino)-4-methyloxazole-5-carboxylate] | 50 to 1000 nM | > 11 µM | X (100-<1000 fold) |
| Cc1ccc(O)c(C)c1NC(=O)c1cnc(Nc2onc(C)c2C(N)=O)s1 [BAA-448, 5-((5-((3-hydroxy-2,6-dimethylphenyl)carbamoyl)thiazol-2-yl)amino)-3-methylisoxazole-4-carboxamide] | < 50 nM | > 11 µM | Y (1000-5000 fold) |

Second part, the compound after the results:

| IC50 (Human PKMYT1) | IC50 (WEE1) | PKMYT1 vs. WEE1 selectivity (WEE1) | Structure (SMILES) |
| --- | --- | --- | --- |
| 50 to 1000 nM | > 11 µM | W (10-<100 fold) | Cc1ccc(O)c(C)c1NC(=O)c1cnc(Nc2ncc(C(C)(C)C)o2)s1 [BAA-449, 2-((5-(tert-butyl)oxazol-2-yl)amino)-N-(3-hydroxy-2,6-dimethylphenyl)thiazole-5-carboxamide] |
| 50 to 1000 nM | > 11 µM | X (100-<1000 fold) | Cc1ccc(O)c(C)c1NC(=O)c1cnc(Nc2n[nH]c3cc(F)cc(F)c23)s1 [BAA-452, 2-((4,6-difluoro-1H-indazol-3-yl)amino)-N-(3-hydroxy-2,6-dimethylphenyl)thiazole-5-carboxamide] |
| 50 to 1000 nM | > 11 µM | X (100-<1000 fold) | Cc1ccc(O)c(C)c1NC(=O)c1cnc(Nc2n[nH]c3ccccc23)s1 [BAA-455, 2-((1H-indazol-3-yl)amino)-N-(3-hydroxy-2,6-dimethylphenyl)thiazole-5-carboxamide] |
| < 50 nM | 1 to 11 µM | X (100-<1000 fold) | Cc1ccc(O)c(C)c1NC(=O)c1cnc(Nc2cccc(C3=NCCO3)c2)s1 [BAA-461, 2-((3-(4,5-dihydrooxazol-2-yl)phenyl)amino)-N-(3-hydroxy-2,6-dimethylphenyl)thiazole-5-carboxamide] |
| 50 to 1000 nM | > 11 µM | X (100-<1000 fold) | Cc1ccc(O)c(C)c1NC(=O)c1cnc(Nc2ccn(C)n2)o1 [BAA-462, N-(3-Hydroxy-2,6-dimethylphenyl)-2-((1-methyl-1H-pyrazol-3-yl)amino) oxazole-5-carboxamide] |
| 50 to 1000 nM | > 11 µM | X (100-<1000 fold) | Cc1ccc(O)c(C)c1NC(=O)c1nnc(Nc2ccn(C)n2)s1 [BAA-463, N-(3-Hydroxy-2,6-dimethylphenyl)-5-((1-methyl-1H-pyrazol-3-yl)amino)-1,3,4-thiadiazole-2-carboxamide] |
| < 50 nM | > 11 µM | Y (1000-5000 fold) | Cc1cn(C)nc1Nc1nnc(C(=O)Nc2c(C)ccc(O)c2C)s1 [BAA-465, 5-((1,4-dimethyl-1H-pyrazol-3-yl)amino)-N-(3-hydroxy-2,6-dimethylphenyl)-1,3,4-thiadiazole-2-carboxamide] |
| 50 to 1000 nM | > 11 µM | Y (1000-5000 fold) | Cc1ccc(O)c(C)c1NC(=O)c1nnc(Nc2ccn(C3CCC3)n2)s1 [BAA-466, 5-((1-cyclobutyl-1H-pyrazol-3-yl)amino)-N-(3-hydroxy-2,6-dimethylphenyl)-1,3,4-thiadiazole-2-carboxamide] |
| < 50 nM | 1 to 11 µM | X (100-<1000 fold) | Cc1ccc(O)c(Br)c1NC(=O)c1cnc(Nc2ccn(C)n2)s1 [BAA-468, N-(2-bromo-3-hydroxy-6-methyl-phenyl)-2-[(1-methylpyrazol-3-yl)amino]thiazole-5-carboxamide] |
| 50 to 1000 nM | > 11 µM | X (100-<1000 fold) | CCc1c(O)ccc(C)c1NC(=O)c1cnc(Nc2ccn(C)n2)s1 [BAA-469, N-(2-Ethyl-3-hydroxy-6-methylphenyl)-2-((1-methyl-1H-pyrazol-3-yl)amino)thiazole-5-carboxamide] |
| < 50 nM | > 11 µM | X (100-<1000 fold) | Cn1cc(Br)c(Nc2ncc(C(=O)Nc3c(F)ccc(O)c3Cl)s2)n1 [BAA-472, 2-((4-Bromo-1-methyl-1H-pyrazol-3-yl)amino)-N-(2-chloro-6-fluoro-3-hydroxyphenyl)thiazole-5-carboxamide] |
| 50 to 1000 nM | > 11 µM | X (100-<1000 fold) | Cc1c(O)ccc(Cl)c1NC(=O)c1cnc(Nc2ccn(C)n2)s1 [BAA-474, N-(6-Chloro-3-hydroxy-2-methyl-phenyl)-2-[(1-methylpyrazol-3-yl)amino]thiazole-5-carboxamide] |
